Results as given in patent publication US20040053898A1, “Combination preparation with a erbeta selective estrogen and serm or antiestorgen” (priority 2000, published 2004).

What was measured:
[1] = system: estrogen receptor preparations of rat prostates and rat uteri; assay: estrogen receptor binding, 3H-estradiol competition, rat prostate versus rat uterus cytosol; conditions: rat prostate ER versus rat uterus ER
Protocol: The binding affinity of the new selective estrogens (ERβ-ligands) and SERMs was tested in competitive experiments with use of 3H-estradiol as a ligand in estrogen receptor preparations of rat prostates and rat uteri.

[2] = system: human estrogen receptor α (ERα) / human estrogen receptor β (ERβ); assay: binding to human estrogen receptors α and β; conditions: human ERα than human ERβ
ERβ compared to ERα = conditions: in-vitro receptor binding test; cited from earlier work

Structure (SMILES) | RBA value in rat prostate estrogen receptor relative to RBA value in rat uterus estrogen receptor (fold better) [1] | binding to human ERα relative to human ERβ (fold better) [2] | preference for ERβ compared to ERα (ERβ compared to ERα)
C[C@]12CC[C@@H]3c4ccc(O)cc4CC[C@H]3[C@@H]1C[C@@H](O)C2=O [16α-hydroxyestrone] | 5 × | 3 × | 
O=c1c(-c2ccc(O)cc2)coc2cc(O)cc(O)c12 [genisteine] |  |  | ERβ-selectivity
